Assay [1] deals with HCT116 cells. Kind of assay: Proliferation assay with isogenic cell line pair: parental HCT116 (S45del/+) and isogenic derivative lacking mutated CTNNB1. The assay is classed as cell-based, human. To be noted: for Δefficacy: difference in maximum percentage effect, isogenic (−/+) versus parental HCT116 (S45del/+), negative = parental more sensitive.
In assay [2] the test system is CTNNB1-mutant cancer cell lines (A427, LS 174T, HCT116, SW48). The assay can be described thus: Cell proliferation assays, panel of sixty-six cancer cell lines: CTNNB1-mutant cell lines. In kind it is cell-based, human.

With `COc1ccc(Oc2cc(NCC3CCOCC3)c3ncc(-c4ccc(C(=O)NC5CC5)c(C)c4)n3n2)c(F)c1F` [Example 5, N-cyclopropyl-4-[6-(2,3-difluoro-4-methoxy-phenoxy)-8-(tetrahydropyran-4-ylmethylamino)imidazo[1,2-b]pyridazin-3-yl]-2-methyl-benzamide, reference compound], in assay [1], the Δefficacy is recorded as −26.

For `COc1cc(C(=O)NC2CCOCC2)ccc1Nc1ncc2c(n1)-n1ccc(C(=O)Nc3c(C)cccc3C)c1CC2` [Example 8, N-(2,6-dimethylphenyl)-2-[2-methoxy-4-(tetrahydropyran-4-ylcarbamoyl)anilino]-5,6-dihydropyrimido[4,5-e]indolizine-7-carboxamide], in assay [1], the ΔpIC50 was −0.29 and the Δefficacy is listed as −11. Besides, the “ΔpIC50” value in assay [2] is given as −0.57. Moreover, the IC50 in assay [2] (Homo sapiens, 120 h, read-out: pIC50 average Mutant (converted)) was 11 nM.

Take `CCc1n[nH]c(CC)c1NC(=O)c1ccn2c1CCc1cnc(Nc3ccc(N4CCN(C)CC4)cc3OC(F)F)nc1-2` [Example 12, N-(3,5-diethyl-1H-pyrazol-4-yl)-2-[2-(difluoromethoxy)-4-(4-methylpiperazin-1-yl)anilino]-5,6-dihydropyrimido[4,5-e]indolizine-7-carboxamide]: the Δefficacy in assay [1] was −18. Still for that read-out and setting: with `COCC(=O)N1CCN(c2ccc(Nc3ncc4c(n3)-n3ccc(C(=O)Nc5c(C)cccc5C)c3CC4)c(OC)c2)CC1` [Example 17, N-(2,6-dimethylphenyl)-2-[2-methoxy-4-[4-(2-methoxyacetyl)piperazin-1-yl]anilino]-5,6-dihydropyrimido[4,5-e]indolizine-7-carboxamide] the figure was −16.

For the origin of these results see patent US11208696B2, “Prognostic biomarkers for TTK inhibitor chemotherapy” (NETHERLANDS TRANSLATIONAL RESEARCH CENTER B.V., priority 2015, dated 2021).
